In PubChem BioAssay AID743267 (Broad Institute, 2014):

The compounds below were run on human bronchial epithelial cells, CFTR corrector, plate reader (assay: CFTR ΔF508 corrector activity in bronchial cells, dose response, human bronchial epithelial cells, plate reader, cherry-pick, two tests (AID 743267)). Settings: measured here: test 1 replicate run.

Row | Structure (SMILES) | AC50
1 | C[C@H](CO)N1C[C@H](C)[C@@H](CN(C)Cc2ccc(Cl)c(Cl)c2)Oc2ccc(NC(=O)Nc3ccc(C(F)(F)F)cc3)cc2CC1=O | 16 µM
2 | COc1ccc(S(=O)(=O)N2CC[C@@H]3[C@@H](CO)Nc4ccc(-c5ccc(C#N)cc5)cc4[C@@H]32)cc1 | 1.57 µM
3 | CN1c2ccc(-c3ccc(C#N)cc3)cc2[C@H]2[C@H](CCN2S(=O)(=O)c2cccc(F)c2)[C@H]1CO | 0.128 µM
4 | N#C[C@@H]1[C@H](c2ccc(-c3cccc(F)c3)cc2)[C@H](CO)N1C(=O)NC1CCCC1 | > 50 µM
5 | Cc1ccc(-c2ccc3c(c2)O[C@H](CN(C)C(=O)Nc2ccc(C(F)(F)F)cc2)[C@@H](C)CN([C@@H](C)CO)S3(=O)=O)cc1 | > 50 µM
6 | COc1cccc(S(=O)(=O)N(C)C[C@@H]2Oc3cc(C4=CCCC4)ccc3S(=O)(=O)N([C@H](C)CO)C[C@H]2C)c1 | 16 µM

Same assay, conditions: measured here: test 2 replicate run

Row | Structure (SMILES) | AC50
7 | N#C/C(=C/c1ccc(N2CCCCC2)o1)C(=O)Nc1ccc2ccccc2c1 | 6.64 µM
8 | COC(=O)c1ccccc1-c1c2ccc(=N)cc-2oc2cc(N)ccc12 | 0.181 µM
9 | CC(=O)Nc1ccc2cc3ccc(NC(C)=O)cc3nc2c1 | 18.1 µM
10 | N#CC1=C(N)OC2=C(CCc3ccccc32)C1c1ccccc1Cl (configuration not stated) | 2.61 µM
11 | Cc1cc2oc(C(=O)NCCc3ccc(S(N)(=O)=O)cc3)c(C)c2cc1C | 0.901 µM
12 | COc1cc(/C=C(\C#N)C(=O)c2c[nH]c3ccccc23)cc(OC)c1O | 8.32 µM
13 | O=C1C=C(NCCc2cc(Br)c(O)c(Br)c2)C(=O)c2ncccc21 | 3.33 µM
14 | CC(=O)c1ccc(Nc2cc(C)nc3c(C)cc(C)cc23)cc1 | 3.11 µM
15 | Cn1c(=O)c(NC2CCCCC2)c2c3c(cccc31)C(=O)c1ccccc1-2 | 8.48 µM
16 | CCN(CC)c1ccc2c(cc1=O)[C@@H](NC)CCc1cc(OC)c(OC)c(OC)c1-2 | 1.31 µM
17 | COc1ccc2[nH]c(C(=O)N/N=C/c3ccc(OC)c(O)c3)cc2c1 | 0.85 µM
18 | COc1nc(-c2ccccc2)cc(-c2ccc3c(c2)OCO3)c1C#N | 3.66 µM
19 | C=CCN1C(=O)/C(=C/C=C2/N(CC)c3ccc(S(=O)(=O)N(C)C)cc3N2CC)SC1=S | 3.35 µM
20 | CCC1(C)OC(c2ccccc2)=C/C(=C/C=C2C(=O)NC(=O)NC2=O)O1 (configuration not stated) | 38.7 µM
21 | Cc1nc(NCc2cccnc2)c2c3c(sc2n1)CCCC3 | 7.38 µM
22 | COC(=O)C1CC23C=CCN4CCC5(c6ccccc6NC15C2C)C43 (configuration not stated) | 4.17 µM
23 | Cc1ccc(-c2csc3ncn(CC#N)c(=O)c23)cc1C | 35.7 µM
24 | CCc1ccc(N2CC(C(=O)Nc3ccccc3N3CCCC3)CC2=O)cc1 (configuration not stated) | 28.7 µM
25 | Nc1nc(Cl)nc2c1ncn2C1CC(O)C(CO)O1 (configuration not stated) | 2.73 µM
26 | COc1cc(C(=O)Nc2ccc3c(c2)CCN3C(C)=O)cc(OC)c1OC | 3.56 µM
27 | COc1cc(/C=C2\SC(=Nc3ccc(Cl)c(C(=O)O)c3)NC2=O)c(Br)c(Br)c1O | 6.66 µM
28 | CCc1ccc(-c2nc(C(N)=O)c3[nH]c(=O)n(-c4ccccc4OC)c3n2)cc1 | 1.33 µM
29 | O=C(Nc1ccccc1)c1nc[nH]c1C(=O)Nc1ccccc1F | 28.3 µM
30 | COc1ccc2noc3c2c1C(=O)c1ccccc1-3 | 19.1 µM
31 | COc1ccc(C2C3=C(COC3=O)Oc3cc4c(cc32)OCO4)cc1OC (configuration not stated) | 3.72 µM
32 | COc1cccc(C2c3cc4c(cc3OC(NNC(N)=O)C2C)OCO4)c1O (configuration not stated) | 3.18 µM

Row | Structure (SMILES) | AC50
33 | Cc1ccc(C2NC(=O)c3ccccc3N2)c(C)c1 (configuration not stated) | 5.08 µM
34 | CC(C)n1cc(/C=C/c2cc[n+](C)cc2)c2ccccc21 | 27.2 µM
35 | O=C(c1cccc(S(=O)(=O)N2CCN(c3ccc(F)cc3)CC2)c1)N1CCCC(C(F)(F)F)C1 (configuration not stated) | 16 µM
36 | O=S1(=O)c2ccc(Br)cc2N2CCC[C@H]2CN1Cc1ccccc1 | 1.77 µM
37 | COc1ccc(-c2ccnc(-c3ccc(O)cc3)n2)cc1 | 1.43 µM
38 | COCCCN=C1NN=C(c2cc(C)n(Cc3ccccc3Cl)c2C)CS1 | 3.3 µM
39 | CCN(CC)CCC(=O)Nc1cccc2c1C(=O)c1ccccc1C2=O | 2.98 µM
40 | O=C(Cc1ccc(Br)cc1)NCc1ccccc1 | 4.85 µM
41 | COc1c(O[C@@H]2O[C@H](CO)[C@@H](O)[C@H](O)[C@H]2O)cc2c(c1OC)-c1ccc(SC)c(=O)cc1C(NC(C)=O)CC2 (some centres not stated) | > 50 µM
42 | CC1(C)OC(c2ccccc2)=C/C(=C/C=C2C(=O)NC(=O)NC2=O)O1 | 24.8 µM
43 | COc1ccc(OC)c(Nc2nc(-c3sc(NC(=O)C(C)(C)C)nc3C)cs2)c1 | 2.78 µM
44 | C=CCN=c1scc(C)n1/N=C/c1ccc(O)c(O)c1 | > 50 µM
45 | CCOC(=O)c1c(C)[nH]c(C(=O)N/N=C\c2ccccc2O)c1C | 3.36 µM
46 | Cc1ccc(S(=O)(=O)N(Cc2cc3ccccc3[nH]c2=O)c2cccc(C)c2)cc1 | 8.17 µM
47 | COC(=O)CSC1=C(C#N)C(c2ccc(C)o2)CC(=O)N1 (configuration not stated) | 8.06 µM
48 | Cn1cccc1/C=C1\SC(=Nc2ccc(O)cc2)NC1=O | 0.315 µM
49 | Cc1ccc(Nc2nc(-c3sc(C)nc3C)cs2)cc1 | 0.812 µM
50 | O=C1c2ccccc2C(=O)N1Cc1cnc(N2CCN(c3ccccc3)CC2)s1 | 44.1 µM
51 | Cc1ccc(C2(C)NC(=O)N(CC(=O)Nc3nc(-c4ccccn4)cs3)C2=O)cc1 (configuration not stated) | 4.23 µM
52 | CN1C(=O)c2cccc3c(N)ccc(c23)C1=O | 18.3 µM
53 | COc1ccc(Nc2nc3cc(-c4sccc4C)sc3c(=O)n2C)cc1OC | 2.15 µM
54 | Oc1ccc2ccccc2c1/C=C/c1ccc2c(Br)cc(Br)c(O)c2n1 | 21.5 µM
55 | CN(Cc1ccccc1)S(=O)(=O)c1ccc(NC(=S)NC(=O)C2CCCC2)cc1 | 5.32 µM
56 | O=[N+]([O-])c1ccc(Sc2cccc[n+]2[O-])c2nonc12 | 12.7 µM
57 | COC(=O)c1ccc(C(=O)NC2CCCc3c2cnn3-c2cc(F)cc(F)c2)nc1 (configuration not stated) | 8.13 µM
